Assay results taken from PMC12155096 (International Journal of Molecular Sciences, 2025).
Read-outs that look alike come from different tables or passages of the source. Values belong to the molecule of their own block, whether it stands above or below them.

Experiments:
[1] = molecular target: T1, human CYP2C9 (Homo sapiens, UniProt P11712); assay: biochemical
[2] = molecular target: T2, human CYP1A2 (Homo sapiens, UniProt P05177); assay: biochemical
T2 sequence (P05177 1-516): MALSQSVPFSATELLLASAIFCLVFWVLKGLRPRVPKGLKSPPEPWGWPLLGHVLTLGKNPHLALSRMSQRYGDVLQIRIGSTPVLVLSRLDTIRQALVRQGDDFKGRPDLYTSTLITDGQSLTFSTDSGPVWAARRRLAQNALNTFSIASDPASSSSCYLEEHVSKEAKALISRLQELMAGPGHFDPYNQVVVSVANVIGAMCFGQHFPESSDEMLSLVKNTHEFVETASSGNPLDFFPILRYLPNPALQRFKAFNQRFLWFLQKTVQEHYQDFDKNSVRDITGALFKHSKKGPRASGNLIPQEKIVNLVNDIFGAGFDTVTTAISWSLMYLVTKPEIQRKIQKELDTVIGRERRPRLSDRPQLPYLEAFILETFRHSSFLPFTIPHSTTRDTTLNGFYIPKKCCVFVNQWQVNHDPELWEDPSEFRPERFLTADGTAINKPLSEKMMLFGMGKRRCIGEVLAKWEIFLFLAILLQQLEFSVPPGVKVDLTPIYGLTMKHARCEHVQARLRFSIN

[3] = molecular target: human CYP2D6 (Homo sapiens, UniProt P10635); assay: biochemical
human CYP2D6, sequence (P10635 whole entry): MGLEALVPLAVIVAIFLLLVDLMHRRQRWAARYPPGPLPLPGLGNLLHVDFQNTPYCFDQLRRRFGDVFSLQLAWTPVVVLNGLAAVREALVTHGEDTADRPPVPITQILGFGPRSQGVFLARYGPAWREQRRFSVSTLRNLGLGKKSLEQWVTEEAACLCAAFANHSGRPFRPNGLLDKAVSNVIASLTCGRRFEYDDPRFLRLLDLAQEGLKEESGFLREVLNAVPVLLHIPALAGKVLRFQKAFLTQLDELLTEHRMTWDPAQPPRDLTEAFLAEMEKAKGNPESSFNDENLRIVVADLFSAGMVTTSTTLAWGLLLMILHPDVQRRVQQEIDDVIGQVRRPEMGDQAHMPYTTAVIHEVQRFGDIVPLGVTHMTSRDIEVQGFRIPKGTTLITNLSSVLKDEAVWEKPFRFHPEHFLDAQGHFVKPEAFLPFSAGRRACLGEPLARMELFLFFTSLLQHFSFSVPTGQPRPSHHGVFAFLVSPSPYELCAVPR

[4] = molecular target: T3, human CYP2C19 (Homo sapiens, UniProt P33261); assay: biochemical
T3 sequence (P33261 whole entry): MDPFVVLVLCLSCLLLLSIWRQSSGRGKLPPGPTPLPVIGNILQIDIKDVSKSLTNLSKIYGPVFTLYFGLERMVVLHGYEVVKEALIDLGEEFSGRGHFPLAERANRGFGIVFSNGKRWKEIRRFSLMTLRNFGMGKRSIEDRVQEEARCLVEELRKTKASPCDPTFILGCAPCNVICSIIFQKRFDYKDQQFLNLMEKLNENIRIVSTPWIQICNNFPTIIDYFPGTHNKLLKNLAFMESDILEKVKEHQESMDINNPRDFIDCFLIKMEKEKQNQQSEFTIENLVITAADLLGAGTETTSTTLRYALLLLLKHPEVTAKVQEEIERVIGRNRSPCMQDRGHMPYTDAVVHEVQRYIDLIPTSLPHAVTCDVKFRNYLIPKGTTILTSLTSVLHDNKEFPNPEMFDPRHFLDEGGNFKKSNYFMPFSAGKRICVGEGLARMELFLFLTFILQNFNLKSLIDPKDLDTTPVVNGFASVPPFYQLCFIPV

[5] = molecular target: CYP3A4 (Homo sapiens, UniProt P08684)
CYP3A4, sequence (P08684 whole entry): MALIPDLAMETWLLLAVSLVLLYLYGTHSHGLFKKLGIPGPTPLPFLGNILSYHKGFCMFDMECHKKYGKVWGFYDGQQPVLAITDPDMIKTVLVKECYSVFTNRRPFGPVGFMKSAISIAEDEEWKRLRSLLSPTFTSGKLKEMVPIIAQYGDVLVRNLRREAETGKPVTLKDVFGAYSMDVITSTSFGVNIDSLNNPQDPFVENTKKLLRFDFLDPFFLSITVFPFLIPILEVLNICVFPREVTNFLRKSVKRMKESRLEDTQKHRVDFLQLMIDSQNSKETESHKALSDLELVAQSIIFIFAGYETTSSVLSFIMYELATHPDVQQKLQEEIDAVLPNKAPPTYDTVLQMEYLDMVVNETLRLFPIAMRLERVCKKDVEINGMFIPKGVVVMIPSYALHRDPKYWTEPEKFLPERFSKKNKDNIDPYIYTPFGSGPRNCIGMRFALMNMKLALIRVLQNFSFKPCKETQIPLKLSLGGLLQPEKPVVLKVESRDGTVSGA

[6] = molecular target: T3, human CYP2C19
[7] = molecular target: T2, human CYP1A2
[8] = molecular target: Photinus pyralis (firefly) luciferase (Photinus pyralis, UniProt P08659); assay: biochemical; assay type: biochemical
Photinus pyralis (firefly) luciferase, sequence (P08659 whole entry): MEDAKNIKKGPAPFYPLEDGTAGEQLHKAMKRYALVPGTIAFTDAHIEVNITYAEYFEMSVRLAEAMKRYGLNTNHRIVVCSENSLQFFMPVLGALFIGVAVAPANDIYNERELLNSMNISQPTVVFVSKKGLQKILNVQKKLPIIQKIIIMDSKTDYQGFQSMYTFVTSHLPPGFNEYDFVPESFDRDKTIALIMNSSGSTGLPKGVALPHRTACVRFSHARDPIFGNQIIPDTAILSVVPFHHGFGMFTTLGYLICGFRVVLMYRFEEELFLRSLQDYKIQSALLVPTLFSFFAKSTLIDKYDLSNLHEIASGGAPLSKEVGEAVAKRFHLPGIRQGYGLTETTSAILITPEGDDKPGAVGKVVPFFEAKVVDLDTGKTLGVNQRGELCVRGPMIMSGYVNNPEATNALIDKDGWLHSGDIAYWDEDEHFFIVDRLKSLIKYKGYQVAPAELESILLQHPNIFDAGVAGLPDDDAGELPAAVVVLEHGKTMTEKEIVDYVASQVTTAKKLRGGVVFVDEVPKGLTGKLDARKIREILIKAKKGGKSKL

[9] = molecular target: T1, human CYP2C9
[10] = CYP2C9 AC50 (half-maximal activity concentration)
[11] = CYP1A2 AC50 (half-maximal activity concentration)
[12] = CYP2D6 AC50 (half-maximal activity concentration)
[13] = CYP2C19 AC50 (half-maximal activity concentration)

T1 sequence (P11712 whole entry): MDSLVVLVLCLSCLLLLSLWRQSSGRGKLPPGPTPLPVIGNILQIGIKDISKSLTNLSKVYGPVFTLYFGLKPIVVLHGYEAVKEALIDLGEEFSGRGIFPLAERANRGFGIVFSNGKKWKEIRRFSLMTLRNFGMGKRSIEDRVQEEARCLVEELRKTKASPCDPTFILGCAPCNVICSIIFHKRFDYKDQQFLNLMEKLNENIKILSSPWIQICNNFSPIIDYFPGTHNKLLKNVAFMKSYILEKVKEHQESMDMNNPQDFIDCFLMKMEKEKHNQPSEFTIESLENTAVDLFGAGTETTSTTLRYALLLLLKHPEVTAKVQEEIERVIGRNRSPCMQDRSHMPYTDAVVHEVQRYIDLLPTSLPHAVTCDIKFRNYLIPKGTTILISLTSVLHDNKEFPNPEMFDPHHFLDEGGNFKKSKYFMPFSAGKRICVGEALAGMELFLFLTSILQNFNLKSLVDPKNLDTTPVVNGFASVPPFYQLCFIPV

Structure (SMILES): O=c1[nH]sc2ccccc12 [1,2-Benzisothiazolin-3-one]
AC50 [1, 10]: 34.3 µM | AC50 [2, 11]: 31.7 µM | AC50 [3, 12]: 11.3 µM | AC50 [4, 13]: 2.38 µM | CYP3A4 AC50 (half-maximal activity concentration) [5]: Inconclusive inhibitor

Structure (SMILES): Oc1cc(Cl)c(Cl)c(Cl)c1 [3,4,5-Trichlorophenol]
AC50 [1, 10]: 11.1 µM | AC50 [2, 11]: 26.1 µM | AC50 [3, 12]: 29 µM | AC50 [4, 13]: 19.5 µM | CYP3A4 AC50 (half-maximal activity concentration) [5]: Inconclusive inhibitor

AC50 [1]: 9.08 µM | AC50 [2]: 32.1 µM | AC50 [3]: 61.3 µM | CYP2C19 AC50 (half-maximal activity concentration) [6]: Inconclusive inhibitor | CYP3A4 AC50 (half-maximal activity concentration) [5]: Inconclusive inhibitor
Structure (SMILES): Oc1ccc(-c2ccc(O)cc2)cc1 [4,4'-Biphenyldiol]

AC50 [1]: 0.77 ± 0.4 µM | AC50 [2]: 38.5 ± 2.51 µM | AC50 [3]: 63.5 ± 20.9 µM | AC50 [4]: 31.8 ± 10.5 µM | CYP3A4 AC50 (half-maximal activity concentration) ([5]; mean ± standard deviation from three experiments, activity call in words where no AC50): Inconclusive inhibitor
Structure (SMILES): O=C(c1ccc(O)cc1)c1ccc(O)cc1 [4,4'-Dihydoxybenzophenone]

AC50 [1]: 3.66 µM | CYP1A2 AC50 (half-maximal activity concentration) [7]: Inconclusive inhibitor | AC50 [3]: 30.9 µM | AC50 [4]: 36 µM | CYP3A4 AC50 (half-maximal activity concentration) [5]: Inconclusive inhibitor
Structure (SMILES): Oc1ccc(Sc2ccc(O)cc2)cc1 [4,4'-Thiodiphenol]

AC50 [1]: 5.88 µM | AC50 [2]: 43.2 µM | AC50 [3]: 66.7 µM | AC50 [4]: 4.75 µM | CYP3A4 AC50 (half-maximal activity concentration) [5]: Inactive
Structure (SMILES): O=S(=O)(c1ccccc1)c1ccc(Cl)cc1 [4-Chlorophenyl phenyl sulfone]

Structure (SMILES): O=C(c1ccccc1)c1ccc(O)cc1 [4-Hydroxybenzophenone]
AC50 [1, 10]: 2.7 µM | AC50 [2, 11]: 29 µM | AC50 [3, 12]: 36.1 µM | AC50 [4, 13]: 31.7 µM | CYP3A4 AC50 (half-maximal activity concentration) [5]: Inactive

Structure (SMILES): CC(C)(C)c1ccc(O)c(O)c1 [4-tert-Butylcatechol]
AC50 [1, 10]: 73.7 µM | AC50 [2, 11]: 60 µM | AC50 [3, 12]: 9.07 µM | AC50 [4, 13]: 13.6 µM | CYP3A4 AC50 (half-maximal activity concentration) [5]: Inactive

Structure (SMILES): C=CC[C@]1(O)CC[C@H]2[C@@H]3CCC4=CC(=O)CCC4=C3C=C[C@@]21C [Altrenogest]
IC50 [1]: 14.8 ± 4.35 µM | CYP1A2 IC50 [7]: Inactive | IC50 [3]: 46.9 ± 11.3 µM | IC50 [4]: 8.15 ± 2.81 µM | Luciferase IC50 [8]: Inactive

Structure (SMILES): C[C@@H](O[C@H]1OCCN(Cc2n[nH]c(=O)[nH]2)[C@H]1c1ccc(F)cc1)c1cc(C(F)(F)F)cc(C(F)(F)F)c1 [Aprepitant]
IC50 ([1]; CYP2C9 IC50): 13.8 µM | CYP1A2 IC50 [7]: Inactive | IC50 ([3]; CYP2D6 IC50): 25 µM | IC50 ([4]; CYP2C19 IC50): 23.9 µM | Luciferase IC50 [8]: Inactive

Structure (SMILES): CCN(CC)CCOC(=O)C(C)(c1ccccc1)c1ccccc1 [Aprofene]
IC50 [1]: 12.9 µM | CYP1A2 IC50 [7]: Inactive | IC50 [3]: 1.57 µM | IC50 ([4]; CYP2C19 IC50): 12.3 µM | Luciferase IC50 [8]: Inactive

Structure (SMILES): CC(C)COCC(CN(Cc1ccccc1)c1ccccc1)N1CCCC1 (stereo not shown) [Bepridil]
CYP1A2 IC50 [7]: Inactive | IC50 ([3]; CYP2D6 IC50): 0.06 µM | Luciferase IC50 [8]: Inactive

Structure (SMILES): CC(CC1c2ccccc2CCc2ccccc21)CN(C)C (stereo not shown) [Butriptyline]
CYP2C9 IC50 [9]: Inactive | CYP1A2 IC50 [7]: Inactive | IC50 ([3]; CYP2D6 IC50): 0.97 µM | IC50 ([4]; CYP2C19 IC50): 8.39 µM | IC50 [8]: 8.71 µM

Structure (SMILES): NS(=O)(=O)c1ccc(Cl)c(S(N)(=O)=O)c1 [Clofenamide]
AC50 [1, 10]: 19.8 µM | CYP1A2 AC50 (half-maximal activity concentration) [7]: Inactive | AC50 [3, 12]: 30.6 µM | CYP2C19 AC50 (half-maximal activity concentration) [6]: Inactive | CYP3A4 AC50 (half-maximal activity concentration) [5]: Inactive

Structure (SMILES): COc1ccc([C@@H]2Sc3ccccc3N(CCN(C)C)C(=O)[C@@H]2OC(C)=O)cc1 [Diltiazem]
CYP2C9 IC50 (half-maximal inhibitory concentration) [9]: Inactive | CYP1A2 IC50 (half-maximal inhibitory concentration) [7]: Inactive | IC50 ([3]; CYP2D6 IC50 (half-maximal inhibitory concentration)): 19.1 µM | CYP2C19 IC50 (half-maximal inhibitory concentration) [6]: Inactive | Luciferase IC50 (half-maximal inhibitory concentration) [8]: Inactive
